Measured values published in patent US9598424B2 (Takeda Pharmaceutical Company Limited, priority 2014, dated 2017).

Experiments:
Full length human TBK1 = target: T1, Full length human TBK1 (Homo sapiens, UniProt Q9UHD2); test: Inhibition of TBK1 Enzyme (Caliper microfluidic assay); assay type: biochemical; conditions: 25 μM ATP, 60 min at RT; -log(IC50), IC50 molar; read-out: TBK1 Inhibition (pIC50) (converted)
T1 construct: Full length human TBK1 with an N-terminal His-tag; His-tag (N); made in house; host or cells: Sf9 insect cells (baculovirus, pFastBac1)
T1 sequence (Q9UHD2 1-729): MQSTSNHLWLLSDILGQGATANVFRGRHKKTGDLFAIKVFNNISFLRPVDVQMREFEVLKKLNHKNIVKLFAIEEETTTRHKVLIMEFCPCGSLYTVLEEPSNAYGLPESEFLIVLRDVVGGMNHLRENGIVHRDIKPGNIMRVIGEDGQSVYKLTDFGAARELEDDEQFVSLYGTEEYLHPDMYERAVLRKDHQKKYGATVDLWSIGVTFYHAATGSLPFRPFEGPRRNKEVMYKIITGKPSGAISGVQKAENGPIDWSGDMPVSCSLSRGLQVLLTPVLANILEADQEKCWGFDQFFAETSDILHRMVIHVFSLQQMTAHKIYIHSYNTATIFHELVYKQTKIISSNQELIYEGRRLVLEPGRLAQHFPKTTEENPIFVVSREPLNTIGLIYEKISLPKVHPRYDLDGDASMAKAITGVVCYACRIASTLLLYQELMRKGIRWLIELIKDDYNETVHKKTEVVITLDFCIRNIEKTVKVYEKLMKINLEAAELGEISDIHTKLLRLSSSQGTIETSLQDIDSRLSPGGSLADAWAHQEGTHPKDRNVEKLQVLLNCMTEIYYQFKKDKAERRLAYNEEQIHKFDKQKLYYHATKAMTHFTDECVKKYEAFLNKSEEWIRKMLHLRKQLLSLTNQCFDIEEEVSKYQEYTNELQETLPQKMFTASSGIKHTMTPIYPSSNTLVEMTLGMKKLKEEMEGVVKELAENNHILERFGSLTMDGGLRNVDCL
Protocol: Full length human TBK1 with an N-terminal His-tag was cloned into the pFastBacl vector and was transfected into Sf9 cells. 72 hours later the virus was harvested and amplified through two additional rounds of infections. Then 400 ml of the resulting virus stock was used to infect 10L of Sf9 cells at a density of 2×10^6 cells/ml. Cell pellets were harvested 48 hours post infection and were lysed by freeze-thaw, homogenization and sonication in binding buffer (25 mM Tris pH7.6, 1 M NaCl, 10 mM imidazole, 0.5 mM TCEP) plus 0.1% Triton X-100 and complete protease inhibitor cocktail. The lysate was spun and the supernatant was purified with a HisTrap FF crude and a Superdex 200 pg column.
TBK1 inhibition is determined using a 384 well plate format in buffer containing 20 mM Hepes, pH 7.4, 10 mM MgCl2, 1 mM EDTA, 0.01% Brij-L23, 1 mM DTT. Each test compound is prepared in DMSO using 2.5-fold serial dilutions for 11 data points, which are added to the buffer so that each dilution contains 1% DMSO. To each well is added 2 μL of 1 μm 5FAM-DRHDSGLDSMKDE-NH2 (in buffer), 2 μL of diluted test compound (1% DMSO in buffer), and 5 μL of 3 nM TBK1 and 25 μM ATP (in buffer). The reaction mixture is incubated at RT for 60 min, and quenched by adding 20 mM Hepes, pH 7.4, 10 mM MgCl2, 1 mM EDTA, 0.01% Brij-L23, 1 mM DTT+25 mM EDTA. To quantify the fluorescent-labeled substrate and product following reaction, the test plate is loaded on a Caliper LC-3000, which measures percent of conversion by microfluidic-based separation. Corresponding IC50 values are calculated by non-linear curve fitting of the compound concentrations and percent of inhibition to the standard IC50 equation and reported as pIC50, i.e., −log(IC50), where IC50 is the molar concentration.

TBK1 = target: T2, TBK1 (Homo sapiens, UniProt Q9UHD2); test: Inhibition of TBK1 in Cells (TLR3 driven ISRE β-lactamase reporter assay); assay type: cell-based; conditions: poly IC-LMW stimulation 16 hrs; -log(EC50), EC50 molar; read-out: Inhibition of TBK1 in cells pEC50 (EC) (converted)
T2 construct: host or cells: RA1-ISRE beta-lactamase reporter cells
T2 sequence (Q9UHD2 1-729): T1 sequence (Q9UHD2 1-729)
Protocol: TBK1 inhibition is determined using a TLR3 driven RA1-ISRE β-lacatamase reporter assay (Life Technologies). In the assay 50,000 cells/well are plated in black clear bottom 384 well plate. Each test compound is prepared in DMSO using 2.5-fold serial dilutions for 11 data points, which are then added to the media. Cells are stimulated with 0.15 mg/ml poly IC-LMW (Invivogen) for 16 hrs. Reporter activity is detected using the LiveBLAzer-FRET B/G CCF4-AM substrate (Life Technologies) and the plate is read using the Spectramax M5 instrument. Corresponding EC50 values are calculated by non-linear curve fitting of the compound concentrations and percent of inhibition to the standard EC50 equation and reported as pEC50, i.e., −log(EC50), where EC50 is the molar concentration.

SMILES | IC50 (Full length human TBK1) | EC50 (TBK1)
O=C(NCC(F)(F)F)c1ccn(-c2ccc3nc(NC(=O)C4CC4)cn3c2)n1 [Example 34, 1-(2-(cyclopropanecarboxamido)imidazo[1,2-a]pyridin-6-yl)-N-(2,2,2-trifluoroethyl)-1H-pyrazole-3-carboxamide] | 20 nM | 513 nM
O=C(NCC(F)F)c1ccn(-c2ccc3nc(NC(=O)C4CC4)cn3c2)n1 [Example 35, 1-(2-(cyclopropanecarboxamido)imidazo[1,2-a]pyridin-6-yl)-N-(2,2-difluoroethyl)-1H-pyrazole-3-carboxamide] | 79.4 nM | 5250 nM
O=C(NCC(F)(F)F)c1ccn(-c2cn3cc(NC(=O)C4CC4)nc3cn2)n1 [Example 36, 1-(2-(cyclopropanecarboxamido)imidazo[1,2-a]pyrazin-6-yl)-N-(2,2,2-trifluoroethyl)-1H-pyrazole-3-carboxamide] | 10 nM | 245 nM
O=C(NCC(F)F)c1ccn(-c2cn3cc(NC(=O)C4CC4)nc3cn2)n1 [Example 38, 1-(2-(cyclopropanecarboxamido)imidazo[1,2-a]pyrazin-6-yl)-N-(2,2-difluoroethyl)-1H-pyrazole-3-carboxamide] | 25.1 nM | 1170 nM
O=C(NCC(F)(F)F)c1ccn(-c2ccc3nc(NC(=O)C4CC4)cn3n2)n1 [Example 39, 1-(2-(cyclopropanecarboxamido)imidazo[1,2-b]pyridazin-6-yl)-N-(2,2,2-trifluoroethyl)-1H-pyrazole-3-carboxamide] | 251 nM | > 50100 nM
O=C(NCC(F)(F)F)c1cnn(-c2ccc3nc(NC(=O)C4CC4)cn3c2)c1 [Example 40, 1-(2-(cyclopropanecarboxamido)imidazo[1,2-a]pyridin-6-yl)-N-(2,2,2-trifluoroethyl)-1H-pyrazole-4-carboxamide] | 31.6 nM | 708 nM
CC(F)(F)CNC(=O)c1cn(-c2ccc3nc(NC(=O)C4CC4)cn3c2)cn1 [Example 42, 1-(2-(cyclopropanecarboxamido)imidazo[1,2-a]pyridin-6-yl)-N-(2,2-difluoropropyl)-1H-imidazole-4-carboxamide] | 100 nM | 5130 nM
C[C@@H](NC(=O)c1cn(-c2ccc3nc(NC(=O)C4CC4)cn3c2)cn1)C(F)(F)F [Example 43] | 50.1 nM | 2340 nM
O=C(NCC(F)(F)F)c1cc(-c2ccc3nc(NC(=O)C4CC4)cn3n2)cs1 [Example 44, 4-(2-(cyclopropanecarboxamido)imidazo[1,2-b]pyridazin-6-yl)-N-(2,2,2-trifluoroethyl)thiophene-2-carboxamide] | 3.98 nM | 214 nM
O=C(NCC(F)(F)F)c1ncc(-c2ccc3nc(NC(=O)C4CC4)cn3c2)[nH]1 [Example 50, 4-(2-(cyclopropanecarboxamido)imidazo[1,2-a]pyridin-6-yl)-N-(2,2,2-trifluoroethyl)-1H-imidazole-2-carboxamide] | 12.6 nM | 479 nM
O=C(NCC(F)(F)F)c1cc(-c2ccc3nc(NC(=O)C4CC4)cn3c2)[nH]n1 [Example 51, 5-(2-(cyclopropanecarboxamido)imidazo[1,2-a]pyridin-6-yl)-N-(2,2,2-trifluoroethyl)-1H-pyrazole-3-carboxamide] | 7.94 nM | 490 nM
O=C(Nc1cn2cc(-c3cc(C(=O)N4CCC[C@@H]4C(F)(F)F)n[nH]3)ccc2n1)C1CC1 [Example 52, (R)-N-(6-(3-(2-(trifluoromethyl)pyrrolidine-1-carbonyl)-1H-pyrazol-5-yl)imidazo[1,2-a]pyridin-2-yl)cyclopropanecarboxamide] | 6.31 nM | 148 nM
O=C(N[C@H]1CCOC1)c1cc(-c2ccc3nc(NC(=O)C4CC4)cn3c2)[nH]n1 [Example 53, (S)-5-(2-(cyclopropanecarboxamido)imidazo[1,2-a]pyridin-6-yl)-N-(tetrahydrofuran-3-yl)-1H-pyrazole-3-carboxamide] | 158 nM | 25100 nM
O=C(Nc1cn2cc(-c3csc(C(=O)N4CCOCC4)c3)ccc2n1)C1CC1 [Example 54, N-{6-[5-(morpholine-4-carbonyl)thiophen-3-yl]imidazo[1,2-a]pyridin-2-yl}cyclopropanecarboxamide] | 251 nM | 20000 nM
O=C(NCC(F)F)c1cc(-c2ccc3nc(NC(=O)C4CC4)cn3c2)cs1 [Example 55, 4-(2-(cyclopropanecarboxamido)imidazo[1,2-a]pyridin-6-yl)-N-(2,2-difluoroethyl)thiophene-2-carboxamide] | 6.31 nM | 275 nM
CC(C)(NC(=O)c1cc(-c2ccc3nc(NC(=O)C4CC4)cn3c2)cs1)C(F)(F)F [Example 56, 4-(2-(cyclopropanecarboxamido)imidazo[1,2-a]pyridin-6-yl)-N-(1,1,1-trifluoro-2-methylpropan-2-yl)thiophene-2-carboxamide] | 25.1 nM | 631 nM
CC(F)(F)CNC(=O)c1cc(-c2ccc3nc(NC(=O)C4CC4)cn3c2)cs1 [Example 57, 4-(2-(cyclopropanecarboxamido)imidazo[1,2-a]pyridin-6-yl)-N-(2,2-difluoropropyl)thiophene-2-carboxamide] | 10 nM | 219 nM
CC(NC(=O)c1cc(-c2ccc3nc(NC(=O)C4CC4)cn3c2)cs1)C(F)(F)F (stereo not shown) [Example 59, 4-(2-(cyclopropanecarboxamido)imidazo[1,2-a]pyridin-6-yl)-N-(1,1,1-trifluoropropan-2-yl)thiophene-2-carboxamide] | 20 nM | 240 nM
O=C(Nc1cn2cc(-c3csc(C(=O)N4CCCC4C(F)(F)F)c3)ccc2n1)C1CC1 (stereo not shown) [Example 60, N-(6-(5-(2-(trifluoromethyl)pyrrolidine-1-carbonyl)thiophen-3-yl)imidazo[1,2-a]pyridin-2-yl)cyclopropanecarboxamide] | 15.8 nM | 234 nM
O=C(Nc1cn2cc(-c3csc(C(=O)N4CCC[C@H]4C(F)(F)F)c3)ccc2n1)C1CC1 [Example 61, (S)-N-(6-(5-(2-(trifluoromethyl)pyrrolidine-1-carbonyl)thiophen-3-yl)imidazo[1,2-a]pyridin-2-yl)cyclopropanecarboxamide] | 39.8 nM | 2630 nM
O=C(Nc1cn2cc(-c3csc(C(=O)N4CCC[C@@H]4C(F)(F)F)c3)ccc2n1)C1CC1 [Example 62, (R)-N-(6-(5-(2-(trifluoromethyl)pyrrolidine-1-carbonyl)thiophen-3-yl)imidazo[1,2-a]pyridin-2-yl)cyclopropanecarboxamide] | 3.98 nM | 74.1 nM
CC(C)CNC(=O)c1cc(-c2ccc3nc(NC(=O)C4CC4)cn3c2)cs1 [Example 63, 4-(2-(cyclopropanecarboxamido)imidazo[1,2-a]pyridin-6-yl)-N-isobutylthiophene-2-carboxamide] | 15.8 nM | 372 nM
O=C(NCC1CC1)c1cc(-c2ccc3nc(NC(=O)C4CC4)cn3c2)cs1 [Example 65] | 20 nM | 676 nM
